Each structure is given as a SMILES string. Entries after “also recorded” stand apart in the source; their conditions may differ. Like-named read-outs stand apart in the source and are kept apart here.

Data set [1] deals with LC3-II. Kind of data set: LC3-II protein level (autophagic flux) in SH-SY5Y cells with or without bafilomycin A1. The format is cell-based, human. The settings on record: bafilomycin A1 (10 nM) alone, without test compound. The text has this: Data are represented as mean+/−SEM with statistical significance by paired student's t-test (n=4, p<0.05).
The observed increase in LC3-positive autophagosomes could result, in principle, from either an increased flux through the autophagy pathway or decreased autophagosome degradation (Pankiv, S., et al. J Biol Chem 282, 24131-24145 (2007); Kamada, Y., et al. J Cell Biol 150, 1507-1513 (2000)). […] In order to ascertain an increase in autophagic flux, cells were co-treated with LNK-754-TS and an inhibitor of autophagosome-lysosome fusion, bafilomycin A1 (10 nM). Bafilomycin treatment alone caused a 100% increase in the amount of LC3-II, consistent with the fact that it inhibits autophagosome degradation (FIG. 8c).
(§1) The mechanism of autophagy stimulation by LNK-754-TS appears distinct from that of the drug rapamycin. Rapamycin is a well-characterized autophagy stimulator that acts through inhibition of mTOR, a kinase involved in nutrient signaling and regulation of cell growth and survival. […] To further contrast the mechanism of autophagy stimulation by LNK-754-TS to that of rapamycin, a collection of mRNA transcripts of autophagy proteins were measured (FIG. 8d). Selected mRNAs from untreated SH-SY5Y cells were compared to mRNAs from cells treated with LNK-754-TS (100 nM), tipifarnib (100 nM), or rapamycin (1 μM).

The subject of data set [2] is α-synuclein. The data set is described as follows: Masliah D-line human WT α-synuclein transgenic mouse, α-synuclein immunoreactivity / ELISA. It counts as in vivo. The conditions noted are these: for levels of α-synuclein in the hippocampus / α-synuclein inclusions vs. transgenic animals administered vehicle alone: α-synuclein transgenic mice; for number of α-synuclein positive neurons: lower-dose trial (FIG. 2B). Here is the method: Animals and treatments: Male and female human WT alpha-synuclein over-expressing transgenic mice^32 at 6 months of age were given vehicle (10% beta-cyclodextrin) or LNK-754-TS (0.09, 0.9 and 9 mg/kg) per oral gavage twice daily for 3 months or animals at 7 months of age were given vehicle (2.5% beta-cyclodextrin) or LNK-754-TS (2 mg/kg) once every three days for 3 months. Male and female TAU transgenic mice expressing TAU441 bearing the missense mutations V337M^50 and R406W under the control of the murine Thy-1 promoter with a CB6xC57BL/6 background were 5 months old at the time when the oral treatment for three months with LNK-754-TS (0.9 and 0.09 mg/kg) as well as vehicle (2.5% beta-cyclodextrin) was started. Female human APP/PS1 (APP (London V7171)/PS1(A246E)) over-expressing transgenic mice were treated with LNK-754-TS (0.9 mg/kg) or vehicle (2.5% beta-cyclodextrin) for 2 months or 12 days.
Immunohistochemistry and quantification of stained cells: For evaluation of α-synuclein immunoreactivity (IR), 5 sagittal cryo-cut sections (10 μm slice thickness) from five different layers were used for counting of IR cells in the cortex and hippocampus. Brain sections were stained with a monoclonal human α-synuclein specific antibody (Alexis®; Cat# 804-258-L001; dilution 1:5), followed by a secondary Ab Cy 2-Goat Anti-Rat (Jackson ImmunoResearch®; dilution 1:200). IR positive cells were quantified using specialized image analysis software (Image Pro Plus, version 4.5.1.29). For Tau transgenic animals, 5 μm thick coronal paraffin sections were stained with the monoclonal mouse anti-human TAU-antibodies (AT180—1:100; HT—1:500) and visualized using an anti-mouse Cy3 secondary antibody (1:500, Jackson laboratories®). Images were evaluated with ImageProPlus (version 6.2) image analysis software. For APP/PS1 transgenic animals sagittal hemisections (40 μm) were collected and processed for Aβ immunohistochemistry using an 6E10 antibody, Thioflavin-S staining Primary antibodies were detected by the ABC method.
ELISA quantification of α-Synuclein in the α-Synuclein transgenic animals: Brain homogenate was centrifuged and the supernatant saved as fraction F1. The pellet was washed then resuspended and saved as fraction F2. Plates (Nunc, 464718) were coated with SYN-1 (1:1000, BD Transduction Labs, 610787). Monomeric recombinant α-synuclein was included as an internal standard. Biotinylated antibody FL-140 (1:300, Santa Cruz Biotechnology, sc-10717-B) and ExtrAvidin-Alkaline phosphatase (3:5000, Sigma, E2636) was added followed by pNPP substrate solution (Sigma, N1891). Raw absorbance (405 nm) was then normalized to the total protein concentration of each sample. In the APP/PS1 transgenic animal, brains were homogenized and the supernatant, Faction 1, was separated from the pellet. The pellets were further processed with addition of NP40 and Triton X-100. The supernatant was separated from the pellet as the insoluble membrane, Fraction 2, and was dissolved in 8M Guanidine. To quantify the amount of human Aβ-40 and Aβ-42, ELISA kits were used (The Genetics Company, Zurich, Switzerland).
In FIG. 2 is shown efficacy data for LNK-754-TS in the Masliah D-line transgenic α-synuclein mouse (an accepted model of synucleinopathies). Two trials are shown, the first (FIG. 2A) at higher doses of LNK-754-TS: 45 mg/kg and 9 mg/kg. […] The second trial (FIG. 2B) explores the low dose range for efficacy in the α-synuclein models. […]
After dosing with LNK-754-TS for three months (twice daily at 0.09 mg/kg or 0.9 mg/kg), α-synuclein accumulation in the brain was analyzed by immunohistochemical (human specific α-synuclein immunoreactivity) and biochemical (α-synuclein ELISA) means. […]
(In general: An ELISA detects its analyte on a solid surface through an enzyme-linked reagent.)

Data set [3] can be described thus: Pharmacokinetics of Zarnestra in C57BL/6 mice, oral administration. It counts as in vivo, mouse. The conditions noted are these: 5 mg/kg p.o. single dose. Here is the method:
LLOQ: brain 4 ng/g; plasma 50 ng/ml.
The pharmacokinetic profiles of LNK-754-TS and Zarnestra® were analyzed using methods known in the art. The results are shown in FIGS. 13-14 and the tables below.

Data set [4] relates to LC3 mRNA. The data set is described as follows: LC3 mRNA (qPCR) in differentiated SH-SY5Y cells. The format is cell-based, human. The settings on record: 100 nM, 72 hr. Here is the method:
(§2) Cell culture and immunocytochemistry: SH-SY5Y cells were grown in DMEM medium supplemented with 10% FBS and 1% pen/strep at 37° C. and 5% CO2. Cells were differentiated with 10 μM retinoic acid for 48 hr, then treated with the either rapamycin (100 nM or 1 μM) or with 100 nM of either LNK-754-TS or Tipifarnib for 48-72 hr. Cells were then fixed with 4% paraformaldehyde and stained for LC3 (Novus biological, NB100-2331, dilution 1:800) followed by secondary Alexa-564 anti-Rabbit (A-11011).
(§3) Quantitative real-time PCR: Gene expression profiles were done by qPCR on series of known autophagy genes. RNA was extracted with Tri-reagent (Sigma), and cDNAs generated using iScript (Biorad). qPCR analysis was carried out in a 96 well plate using an iCycler (BioRad, Hercules, Calif.), and iQ SYBR Green Supermix (Biorad) according to the manufacturer's specifications.
Such increases in LC3 mRNA levels are associated in the literature with stimulation of macroautophagy. This supports the hypothesis that at doses as low as 1 nM in this in vitro system there is stimulation of autophagy in these cells.
(§4) Autophagy was measured in a neuroblastoma cell culture system by three distinct approaches: quantitation of autophagy-related mRNA's, immunofluorescence microscopy of autophagosomes, and biochemical detection of the microtubule-associated protein 1 light chain 3 (LC3) a key protein that is required for autophagosome formation. Differentiated human neuroblastoma cells (SH-SY5Y) were treated for 72 hr with LNK-754-TS (0.01-100 nM), Zarnestra® (also referred to herein as tipifarnib) (100 nM) or rapamycin (1 μM).
On the technique in general: Quantitative PCR measures a nucleic acid by following its amplification.

The test system of data set [5] is LC3. Kind of data set: Punctate LC3 immunostaining in SH-SY5Y cells. It counts as cell-based, human. The settings on record: 100 nM (FIG. 8b). Here is the method: as §2, §4
For data set [6], the system named is Atg1. The data set is described as follows: mRNA levels of autophagy-related genes (Atg1) in SH-SY5Y cells. The format is cell-based, human. The conditions noted are these: 100 nM (FIG. 8d). Here is the method:
as §3, §1

For data set [7], the target named is T1, GGTase (Homo sapiens, UniProt P49354+P53609). The conditions noted are these: general statement; cited from earlier work.
Data set [8] has as its target T1, GGTase. Kind of data set: In vitro GGTase inhibition by LNK-754 (Table 5A). The format is biochemical. The settings on record: general statement. From the text: (§5) The selectivity of LNK-754 for FTase over GGTAse is shown below in Table 5A.
Data set [9] has as its system GGTase. The data set is described as follows: In vitro GGTase inhibition by LNK-754 (Table 5A). It counts as biochemical.
Source text: as §5

The subject of data set [10] is 3T3 H-ras (61L) xenograft tumor. The settings on record: continuous infusion, cited from earlier work.

Take `CO/C1=C\C(C)=C\[C@@H](C)[C@@H](O)[C@@H](C)C/C(C)=C/C=C/[C@H](OC)[C@@H]([C@@H](C)[C@@H](O)[C@H](C)[C@@]2(O)C[C@@H](O)[C@H](C)[C@@H](C(C)C)O2)OC1=O` [bafilomycin A1, reference compound]: in data set [1], the “increase in the amount of LC3-II” value was 100%.

`Cn1cncc1[C@@](N)(c1ccc(Cl)cc1)c1ccc2c(c1)c(-c1cccc(Cl)c1)cc(=O)n2C` [Zarnestra®, (R)-6-(Amino(4-chlorophenyl)(1-methyl-1H-imidazol-5-yl)methyl)-4-(3-chlorophenyl)-1-methyl-2(1H)-quinolinone, reference compound]: in [2], the “levels of α-synuclein in the hippocampus” value is “decrease” and the “α-synuclein inclusions vs. transgenic animals administered vehicle alone” value is “fewer”. The t1/2z in data set [3] (Blood) is listed as 1.31 h. For the same compound, in [3] (Brain), the “AUC(0-t)” value is 44.50 ng·h/g, the “AUC(0-[…])” value worked out at 86.86 ng·h/g and the t1/2z was determined as 8.10 h. In data set [4], the “LC3 mRNA level” value is listed as “also works; also recorded: upregulated”. Further, the “LC3 mRNA level” value in data set [4] (listed as tipifarnib) is on record as “increased”. The “punctate LC3 immunostaining (number of LC3-positive puncta)” value in [5] is given as “distinct increase”. Besides, the “punctate LC3 immunostaining (number of LC3-positive puncta)” value in data set [5] (listed as tipifarnib) is recorded as “increased”. Further, the “mRNA levels of a set of autophagy-related genes” value in [6] is listed as “unaffected”. Moreover, in [7], the GGTase inhibitory activity result was “little to no”.

Take `C#Cc1cccc(-c2cc(=O)n(C)c3ccc([C@](O)(c4ccc(Cl)cc4)c4cncn4C)cc23)c1` [LNK-754, (R)-6-[(4-chlorophenyl)-hydroxyl-(1-methyl-1-H-imidazol-5-yl)-methyl]-4-(3-ethynylphenyl)-1-methyl-2-(1H)-quinonlinone]: the “number of α-synuclein positive neurons” value in data set [2] (0.09 mg/kg) and in [2] (0.9 mg/kg) was “significantly lowered” in each case. The “number of α-synuclein positive neurons in the brain” value is “significantly lower” in [2] (9 mg/kg PO BID 3 months, higher-dose trial (FIG. 2A)); “did not significantly lower; also recorded: not found to significantly lower” in data set [2] (45 mg/kg PO BID 3 months, higher-dose trial (FIG. 2A)); “significant reduction” in data set [2] (lower doses, 0.09 mg/kg to 9 mg/kg (FIGS. 2A and 2B)). Besides, in data set [2], the “levels of α-synuclein in the hippocampus” value is “decrease”. Also, in data set [2], the “α-synuclein inclusions vs. transgenic animals administered vehicle alone” value was “fewer”. Further, the GGTase inhibitory activity result in [8] is reported as “little to no”. The GGTI/FTI is on record as 580 in [9] (H-Ras substrates) and 40.11 in data set [9] (K-Ras substrates). Further, in data set [10] (7 day treatment), the “continuous serum level at which significant inhibition of tumor growth was seen” value is reported as “above 100 ng/mL”. Besides, the “inhibition of Ras farnesylation at which significant inhibition of tumor growth was seen” value in data set [10] (tumor tissue) is reported as “at least 50%”.

Source of the values: patent US20110294794A1, “TREATMENT OF PROTEINOPATHIES USING A FARNESYL TRANSFERASE INHIBITOR” (Link Medicine Corporation, priority 2008, published 2011).
